For orientation: IC50 means the concentration that gives 50% inhibition.

Bridge positions count the residues as written; N and C are the ends. Square brackets hold non-standard residues; d marks the D form. Peptide text beside a SMILES is read from it. I, II: the chains in the order shown. 2Nal = N[C@@H](Cc1ccc2ccccc2c1)C(=O)O; AEEA = NCCOCCOCC(=O)O

Data on one molecule can be found in US12115224B2, “Polypeptide conjugates for intracellular delivery of stapled peptides” (Ohio State Innovation Foundation, priority 2017, dated 2024).

Data set [1] is described as follows: Serum stability in 25% human serum. It is filed as in vitro ADME. Particulars: 37° C., read-out: compound detected at the end of the study. Here is the method:
FIG. 25 is a graph showing the stability of CPP9-sPDI (structure 23) in 25% human serum at 37° C.
The serum stability of CPP9-sPDI was evaluated by incubating the conjugate in 25% human serum at 37° C. over 24 hours. […] The observed level of serum stability (cargo region) may impact the IC50 values measured for this compound.

The next data set deals with HeLa cells. Description: Live-cell confocal microscopy of FITC-labeled peptides. The data set is classed as cell-based. The conditions noted are these: 5 μM FITC-labeled peptide, 2 h, 37° C. Here is the method:
HeLa cells were treated with 5 μM FITC-labeled peptide for 2 h at 37° C., washed to remove excess peptide, and subjected to live-cell confocal microscopy. I, DIC; II, GFP channel; and III, overlap of I and II.
Four pairs of the peptides from Table 6 were also labeled with FITC and their entry into HeLa cells were monitored by live-cell confocal microscopy (FIG. 4).
To assess delivery aptitude of each conjugate, peptides 22-25 were labeled with FITC and their entry into HeLa cells was monitored by live-cell confocal microscopy (FIG. 21). HeLa cells were treated with 5 μM FITC-labeled peptide for 2 h at 37° C. and washed to remove excess peptide.

A short description of data set [2]: Anti-proliferation MTT assay, SJSA-1. The data set is classed as cell-based. The conditions noted are these: 72-hour treatment, 0-20 μM, 10% FBS, read-out: IC50 (cytotoxicity). Here is the method:
IC50 values (μM) are provided for each test compound.
In addition, the anti-proliferative effects of CPP9-sPDI (structure 23) were evaluated. FIG. 23 compares the effects of CPP9-sPDI, Nutlin-3a, R9-sPDI, sPDI, CPP9-sPDI(F10A) and Tat-sPDI (0-20 μM) on the viability of SJSA-1 cell line after 72-hour treatment in the presence of 10% FBS as measured by MTT assay.
A general note: Formazan colour is commonly taken as a measure of viable cells.

In the case of `CC(=O)N[C@@H](CC(C)C)C(=O)N[C@H](C(=O)N[C@@H](Cc1ccccc1)C(=O)N[C@H]1CC(=O)NCCCC[C@@H](C(=O)N[C@@H](CCC(N)=O)C(=O)N[C@@H](CC(C)C)C(=O)N[C@H](C(=O)N[C@@H](CO)C(=O)NCCOCCOCC(=O)N[C@@H](CCCCNC(=O)CC[C@@H]2NC(=O)[C@@H](CCCNC(=N)N)NC(=O)[C@H](CCCNC(=N)N)NC(=O)[C@@H](CCCNC(=N)N)NC(=O)[C@H](CCCNC(=N)N)NC(=O)[C@H](Cc3ccc4ccccc4c3)NC(=O)[C@@H](Cc3ccccc3)NC2=O)C(N)=O)[C@@H](C)O)NC(=O)[C@H](Cc2c[nH]c3ccccc23)NC(=O)[C@H](Cc2ccc(O)cc2)NC(=O)[C@H](Cc2cnc[nH]2)NC1=O)[C@@H](C)O` [Peptide 23] (I: Ac-LTFDHYWKQLTS[AEEA]K-NH2 / II: cyclo([2Nal]R[dR]R[dR]E[dF]); lactam I:4-I:8; amide I:14-II:6), the remaining at 24 h in data set [1] was 25%. For the same molecule, the “cellular uptake by confocal microscopy” value in the data set with HeLa cells is “most effective conjugate for delivering sPDI”. Further, the IC50 in data set [2] turned out to be 3.86 µM.
